Columns and labels:
Lewis rats = assay: Acute experimental autoimmune encephalomyelitis (MBP/CFA); format: in vivo, rat; conditions: for peak of neurologic damage (neuroclinical score 0-5): vehicle peak 3 (day 13)
Protocol: We investigated whether treatment with […], at the onset of the acute form of experimental autoimmune encephalitis (EAE), the murine model of human multiple sclerosis, could induce a functional recovery.
The motor and sensory deficits were classified according to previously assigned “neuronal” clinical scores.
Adult female Lewis rats (200-250 g) were immunized with an intradermal injection, in the hind limbs, of […] of myelin basic protein (MBP) dissolved in 50 microlitres of emulsified saline solution in 50 microlitres of complete Freund adjuvant (CFA).
Starting from the fifth day post-inoculation, the rats were treated daily with […] (0.1 or 1 mg/kg per os) or with the placebo (vehicle).
The animals were monitored daily until day 21 for clinical symptoms; the range of neuroclinical scores extended from 0 (no neurologic symptom) up to a maximum of 5 (complete paralysis of all legs or death).
Inoculation with the MBP/CFA emulsion led to a very evident loss of body weight; this was not changed by the treatment with Immuflam. The animals were divided into three groups of 15: group 1 Immuflam 0.1 mg/kg, group 2 Immuflam 1 mg/kg, group 3 vehicle. They were all treated daily per os from day 5 until sacrifice.

Dark Agouti (DA) rats = assay: Chronic experimental autoimmune encephalomyelitis (MOG); format: in vivo, rat; conditions: 1 mg/kg per os daily from day of inoculation, to day 50; dose-dependent; FIG. 43
Protocol: We investigated whether treatment with […], at the onset of EAE induced by immunization with MOG (myelin-oligodendrocyte-glycoprotein), stimulates histologic protection and functional recovery.
The motor and sensory deficits were classified according to the previously assigned “neuronal” clinical scores.
Chronic EAE was induced in 60 female adult Dark Agouti (DA) rats of 120-170 g, immunizing the animals with an intradermal injection, at the base of the tail, of […] of recombinant protein MOG1-125 in emulsified PBS in complete Freund adjuvant (CFA) containing hot-inactivated M. tuberculosis.
The rats were divided into 3 groups of 20 animals each and were treated with daily administrations of vehicle or […] 0.1 or 1 mg/kg per os, starting from the day of inoculation.
The neurological scores were measured and evaluated daily for the first thirty days, and thereafter only on weekdays (Monday-Friday) until the end of the study (day 50).
The range of neuroclinical scores begins at 0 (absence of neurologic symptoms) and ends with a score of 5 (complete paralysis of all legs or animal moribund).

mice [1] = assay: Visceral pain: acetic acid model; format: in vivo, mouse; conditions: 4 mg/kg intraperitoneally; FIG. 20
Protocol: We verified the effect of […] on a model of visceral pain. 30 mice were divided into two groups of 15: one group received […] 4 mg/kg intraperitoneally while the other group was treated with only the pharmaceutical vehicle. After the pre-treatment injection, 0.6% acetic acid was administered as a bolus injection 0.3 ml IP. The mice were put in individual observation chambers for assessing, after a period of 20 minutes, the number of contractions induced in each animal following injection of acetic acid. The count started 5 minutes after administration of acetic acid.

dendritic cells (DCs) = assay: Maturation of dendritic cells (flow cytometry of membrane antigens); format: cell-based
Protocol: The effect of […] on the various stages of maturation of the DCs was evaluated. The study was carried out using flow cytometry by analysing the principal membrane antigens characterizing the stage of differentiation and maturation of the DCs.
The DCs were obtained from peripheral whole blood and were plated in a suitable medium (DC medium). The immature DCs (DCi) on day 6 of culture were collected, analysed in the cytofluorimeter and were brought to maturation by stimulation with LPS 10 μg/ml overnight (O.N.). […] 300 μM was added to DC medium during the last 5 hours or simultaneously with maturation of the DCi with LPS (10 μg/ml) overnight. CD1a is a marker of immaturity specific to the DCs, expression of which decreases in mature DCs.
CD80 and CD86 are fundamental co-stimulatory molecules in the process of antigen presentation, and expression of them generally increases in mature DCs compared to immature DCs.

mdx mice = assay: Muscular dystrophy model; format: in vivo, mouse
Excerpt: The mdx mouse is characterized by a nonsense mutation in the dystrophin gene and constitutes an experimental model of DMD. The muscle of mdx is histologically normal in early postnatal development, but goes towards necrosis starting from the third week of life. The mdx mice show high levels of creatine kinase (CK) in the serum and accumulation of inflammatory cells, both markers of muscular degeneration. To assess the effect of […] in the progression of dystrophy and of inflammation in DMD, we treated mdx mice (n=10) at 4 weeks of age (in accordance with the recent SOPs for preclinical drug trials in mdx) with […] (0.25 mg/mouse) intraperitoneally every day for two weeks. The same number of mice of the same age was treated with the vehicle as control. After two weeks of treatment with […], the CK levels had decreased by 70% (P<0.05) (FIG. 33).
Cross sections of anterior tibial muscles stained with haematoxylin/eosin were quantified in duplicate in blind conditions with ImageJ software. In the same sections we also assessed centralization of the nucleus, degeneration of muscle fibres and their regeneration. […] The values obtained for the mice treated with […] were similar to those obtained for the control mice of the same age and genotype but without mutation in the dystrophin gene.
To assess the effect of […] on the inflammatory infiltrate in the muscle of mdx mice, the muscle sections were decorated with anti-CD3 antibodies (T cells). This analysis detected a 40% decrease in the number of cells positive for CD3.

mice [2] = assay: COPD: chronic smoke exposure (6 months), lung morphometry and histology; format: in vivo, mouse; conditions: smoke 6 months, 4 mg/kg i.p. before daily exposure
Protocol: The activity of […] was also tested in a model of chronic exposure, which is closer to the aetiology of the human disorder. The mice were exposed to the smoke of 3 cigarettes a day or air for 5 days a week for 6 months, and were treated 30 minutes before the daily exposure with […] 4 mg/kg i.p.
At the end of the 6 months, the mice were sacrificed and a morphometric and histologic examination was conducted on the lung tissue.
The mean interalveolar distance (Lm) and mean internal surface area of the lung (ISA) were measured, being parameters that are correlated with degeneration of lung tissue and with the resultant decrease in respiratory function.

murine neuroblastoma = conditions: tissue cultures; Mirkin et al., Cancer Research 47, 1987; cited from earlier work
[3] = quantitative PCR, vs vehicle, FIG. 35

With `C=C(C=O)OC(C=O)n1cnc2c(N)ncnc21` (stereo not drawn) [2-[1-(6-aminopurin-9-yl)-2-oxoethoxy]prop-2-enal] the “clinical scores vs vehicle groups” value (Lewis rats; between day 12 and day 15, FIG. 4) was “significant differences”, the “peak of neurologic damage (neuroclinical score 0-5)” value (Lewis rats; group 1, 0.1 mg/kg per os daily from day 5) was 2.3 and the “peak of neurologic damage (neuroclinical score 0-5)” value (Lewis rats; group 2, 1 mg/kg per os daily from day 5) was 1.5. For the same compound, the neurological scores (Dark Agouti (DA) rats) was “remained lower throughout the period of observation”, the “visceral pain (number of contractions after acetic acid)” value (mice [1]) was “effective in the treatment of visceral pain” and the “modulation of CD40 (negative regulation)” value (dendritic cells (DCs); 300 μM) was “less marked”. For the same compound, the “modulation of CD54 (negative regulation)” value (dendritic cells (DCs); 300 μM) was “less marked”, the “class I histocompatibility antigen” value (dendritic cells (DCs); 300 μM, both overnight and at 5 hours) was “decreases” and the CD80 expression (dendritic cells (DCs); DCs matured with LPS, 300 μM) was “no effects on CD80”. The CD86 expression (dendritic cells (DCs); DCs matured with LPS, 300 μM) was “negative regulation of CD86”, the “CD1a expression (marker of immaturity)” value (dendritic cells (DCs); DCs matured with LPS, IMMUFLAM 300 μM at 5 hrs, vs LPS alone) was “shown to increase” and the “decrease of creatine kinase (CK) levels” value (mdx mice; 0.25 mg/mouse i.p. daily for two weeks, P<0.05, FIG. 33) was 70%. For the same compound, the “centralization of the nucleus” value (mdx mice; anterior tibial muscles) was “significant reductions”, the “number of degenerative fibres” value (mdx mice; anterior tibial muscles) was “significant reductions” and the “area of the muscle cross sections (CSA)” value (mdx mice; anterior tibial muscles, vs carrier, FIG. 34) was “significant increase in area of the muscle cross sections”. The “decrease in the number of cells positive for CD3 in muscle” value (mdx mice; anti-CD3 stained muscle sections) was 40%, the I1-1β (mdx mice; [3]) was “significant reduction” and the “levels of mRNA typical of the Treg cells” value (mdx mice; [3]) was “significant increase”. For the same compound, the “ISA (mean internal surface area of the lung)” value (mice [2]) was 1153 ± 59 cm^2, the “Lm (mean interalveolar distance)” value (mice [2]) was 36.3 ± 1.1 μm and the cytotoxic activity (murine neuroblastoma) was “cytotoxic activity”.

From patent publication US20160129005A1, “ADENINE DERIVATIVES HAVING IMMUNOMODULATING ANTI-INFLAMMATORY AND ANALGESIC ACTIVITY” (MEDESTEA RESEARCH & PRODUCTION S.p.A., priority 2011, published 2016)
